Results from ChEMBL document CHEMBL5303573, “Mapping human microbiome drug metabolism by gut bacteria and their genes” (Nature, 2019).

Test: The drug is tested on Edwardsiella tarda strain: ATCC23685 for biotransformation. The drug concentrations were measured before and after a 12-h incubation by liquid-chromatography-coupled mass spectrometry (LC–MS)
Details: 2 µM

Compound | Bacterial Biotransformation
CCOC(=O)C1=C(C)NC(C)=C(C(=O)OC)C1c1cccc([N+](=O)[O-])c1 (configuration not stated) [NITRENDIPINE] | Compound metabolized
C#C[C@]1(O)CC[C@H]2[C@@H]3CCC4=Cc5oncc5C[C@]4(C)[C@H]3CC[C@@]21C [DANAZOL] | Compound metabolized
COc1ccc2[nH]c([S+]([O-])Cc3ncc(C)c(OC)c3C)nc2n1 (configuration not stated) [TENATOPRAZOLE] | Compound metabolized

Details: limosilactobacillus reuteri cf48-3a, 12 h, 2 µM
Description: The drug is tested on Lactobacillus reuteri CF48-3A strain: BEI HM-102 for biotransformation. The drug concentrations were measured before and after a 12-h incubation by liquid-chromatography-coupled mass spectrometry (LC–MS)

Compound | Bacterial Biotransformation
CCOC(=O)C1=C(C)NC(C)=C(C(=O)OC)C1c1cccc([N+](=O)[O-])c1 (configuration not stated) [NITRENDIPINE] | Compound metabolized
COc1ccc2[nH]c([S+]([O-])Cc3ncc(C)c(OC)c3C)nc2n1 (configuration not stated) [TENATOPRAZOLE] | Compound metabolized

Test: The drug is tested on Alistipes indistinctus strain: DSM22520 for biotransformation. The drug concentrations were measured before and after a 12-h incubation by liquid-chromatography-coupled mass spectrometry (LC–MS)
Details: 2 µM

Compound | Bacterial Biotransformation
CCOC(=O)C1=C(C)NC(C)=C(C(=O)OC)C1c1cccc([N+](=O)[O-])c1 (configuration not stated) [NITRENDIPINE] | Compound metabolized
C#C[C@]1(O)CC[C@H]2[C@@H]3CCC4=Cc5oncc5C[C@]4(C)[C@H]3CC[C@@]21C [DANAZOL] | Compound metabolized
COc1ccc2[nH]c([S+]([O-])Cc3ncc(C)c(OC)c3C)nc2n1 (configuration not stated) [TENATOPRAZOLE] | Compound metabolized

Test: The drug is tested on Anaerococcus hydrogenalis strain: DSM7454 for biotransformation. The drug concentrations were measured before and after a 12-h incubation by liquid-chromatography-coupled mass spectrometry (LC–MS)
Details: 2 µM

Compound | Bacterial Biotransformation
CCOC(=O)C1=C(C)NC(C)=C(C(=O)OC)C1c1cccc([N+](=O)[O-])c1 (configuration not stated) [NITRENDIPINE] | Compound metabolized
C#C[C@]1(O)CC[C@H]2[C@@H]3CCC4=Cc5oncc5C[C@]4(C)[C@H]3CC[C@@]21C [DANAZOL] | Compound metabolized
COc1ccc2[nH]c([S+]([O-])Cc3ncc(C)c(OC)c3C)nc2n1 (configuration not stated) [TENATOPRAZOLE] | Compound metabolized

Test: The drug is tested on Bacteroides ovatus strain: ATCC8483 for biotransformation. The drug concentrations were measured before and after a 12-h incubation by liquid-chromatography-coupled mass spectrometry (LC–MS)
Details: 2 µM

Compound | Bacterial Biotransformation
C#C[C@]1(O)CC[C@H]2[C@@H]3CCC4=Cc5oncc5C[C@]4(C)[C@H]3CC[C@@]21C [DANAZOL] | Compound metabolized
COc1ccc2[nH]c([S+]([O-])Cc3ncc(C)c(OC)c3C)nc2n1 (configuration not stated) [TENATOPRAZOLE] | Compound metabolized

Test: The drug is tested on Bacteroides pectinophilus strain: ATCC43243 for biotransformation. The drug concentrations were measured before and after a 12-h incubation by liquid-chromatography-coupled mass spectrometry (LC–MS)
Details: 2 µM

Compound | Bacterial Biotransformation
CCOC(=O)C1=C(C)NC(C)=C(C(=O)OC)C1c1cccc([N+](=O)[O-])c1 (configuration not stated) [NITRENDIPINE] | Compound metabolized
C#C[C@]1(O)CC[C@H]2[C@@H]3CCC4=Cc5oncc5C[C@]4(C)[C@H]3CC[C@@]21C [DANAZOL] | Compound metabolized
COc1ccc2[nH]c([S+]([O-])Cc3ncc(C)c(OC)c3C)nc2n1 (configuration not stated) [TENATOPRAZOLE] | Compound metabolized

Test: The drug is tested on Ruminococcus torques strain: ATCC27756 for biotransformation. The drug concentrations were measured before and after a 12-h incubation by liquid-chromatography-coupled mass spectrometry (LC–MS)
Format: ADME
Parameters: dose 2 uM, timepoint 0 vs 12 hours
Details: 2 µM

Compound | Bacterial Biotransformation
CCOC(=O)C1=C(C)NC(C)=C(C(=O)OC)C1c1cccc([N+](=O)[O-])c1 (configuration not stated) [NITRENDIPINE] | Compound metabolized
C#C[C@]1(O)CC[C@H]2[C@@H]3CCC4=Cc5oncc5C[C@]4(C)[C@H]3CC[C@@]21C [DANAZOL] | Compound metabolized
COc1ccc2[nH]c([S+]([O-])Cc3ncc(C)c(OC)c3C)nc2n1 (configuration not stated) [TENATOPRAZOLE] | Compound metabolized

Test: The drug is tested on Parabacteroides merdae strain: ATCC43184 for biotransformation. The drug concentrations were measured before and after a 12-h incubation by liquid-chromatography-coupled mass spectrometry (LC–MS)
Details: 2 µM

Compound | Bacterial Biotransformation
CCOC(=O)C1=C(C)NC(C)=C(C(=O)OC)C1c1cccc([N+](=O)[O-])c1 (configuration not stated) [NITRENDIPINE] | Compound metabolized
C#C[C@]1(O)CC[C@H]2[C@@H]3CCC4=Cc5oncc5C[C@]4(C)[C@H]3CC[C@@]21C [DANAZOL] | Compound metabolized
COc1ccc2[nH]c([S+]([O-])Cc3ncc(C)c(OC)c3C)nc2n1 (configuration not stated) [TENATOPRAZOLE] | Compound metabolized

Details: bacteroides fragilis, 12 h, 2 µM
Description: The drug is tested on Bacteroides fragilis strain: NCTC 9343 for biotransformation. The drug concentrations were measured before and after a 12-h incubation by liquid-chromatography-coupled mass spectrometry (LC–MS)

Compound | Bacterial Biotransformation
CCOC(=O)C1=C(C)NC(C)=C(C(=O)OC)C1c1cccc([N+](=O)[O-])c1 (configuration not stated) [NITRENDIPINE] | Compound metabolized
C#C[C@]1(O)CC[C@H]2[C@@H]3CCC4=Cc5oncc5C[C@]4(C)[C@H]3CC[C@@]21C [DANAZOL] | Compound metabolized
COc1ccc2[nH]c([S+]([O-])Cc3ncc(C)c(OC)c3C)nc2n1 (configuration not stated) [TENATOPRAZOLE] | Compound metabolized

Test: The drug is tested on Bacteroides uniformis strain: ATCC8492 for biotransformation. The drug concentrations were measured before and after a 12-h incubation by liquid-chromatography-coupled mass spectrometry (LC–MS)
Details: 2 µM

Compound | Bacterial Biotransformation
CCOC(=O)C1=C(C)NC(C)=C(C(=O)OC)C1c1cccc([N+](=O)[O-])c1 (configuration not stated) [NITRENDIPINE] | Compound metabolized
C#C[C@]1(O)CC[C@H]2[C@@H]3CCC4=Cc5oncc5C[C@]4(C)[C@H]3CC[C@@]21C [DANAZOL] | Compound metabolized
COc1ccc2[nH]c([S+]([O-])Cc3ncc(C)c(OC)c3C)nc2n1 (configuration not stated) [TENATOPRAZOLE] | Compound metabolized

Test: The drug is tested on Clostridium ramosum strain: DSM1402 for biotransformation. The drug concentrations were measured before and after a 12-h incubation by liquid-chromatography-coupled mass spectrometry (LC–MS)
Details: thomasclavelia ramosa, 2 µM

Compound | Bacterial Biotransformation
CCOC(=O)C1=C(C)NC(C)=C(C(=O)OC)C1c1cccc([N+](=O)[O-])c1 (configuration not stated) [NITRENDIPINE] | Compound metabolized
C#C[C@]1(O)CC[C@H]2[C@@H]3CCC4=Cc5oncc5C[C@]4(C)[C@H]3CC[C@@]21C [DANAZOL] | Compound metabolized
COc1ccc2[nH]c([S+]([O-])Cc3ncc(C)c(OC)c3C)nc2n1 (configuration not stated) [TENATOPRAZOLE] | Compound metabolized

Test: The drug is tested on Enterococcus faecalis strain: V583 for biotransformation. The drug concentrations were measured before and after a 12-h incubation by liquid-chromatography-coupled mass spectrometry (LC–MS)
Details: 2 µM

Compound | Bacterial Biotransformation
CCOC(=O)C1=C(C)NC(C)=C(C(=O)OC)C1c1cccc([N+](=O)[O-])c1 (configuration not stated) [NITRENDIPINE] | Compound metabolized
C#C[C@]1(O)CC[C@H]2[C@@H]3CCC4=Cc5oncc5C[C@]4(C)[C@H]3CC[C@@]21C [DANAZOL] | Compound metabolized
COc1ccc2[nH]c([S+]([O-])Cc3ncc(C)c(OC)c3C)nc2n1 (configuration not stated) [TENATOPRAZOLE] | Compound metabolized

Details: parabacteroides johnsonii, 12 h, 2 µM
Description: The drug is tested on Parabacteroides johnsonii strain: DSM18315 for biotransformation. The drug concentrations were measured before and after a 12-h incubation by liquid-chromatography-coupled mass spectrometry (LC–MS)

Compound | Bacterial Biotransformation
CCOC(=O)C1=C(C)NC(C)=C(C(=O)OC)C1c1cccc([N+](=O)[O-])c1 (configuration not stated) [NITRENDIPINE] | Compound metabolized
C#C[C@]1(O)CC[C@H]2[C@@H]3CCC4=Cc5oncc5C[C@]4(C)[C@H]3CC[C@@]21C [DANAZOL] | Compound metabolized
COc1ccc2[nH]c([S+]([O-])Cc3ncc(C)c(OC)c3C)nc2n1 (configuration not stated) [TENATOPRAZOLE] | Compound metabolized

Test: The drug is tested on Providencia stuartii strain: ATCC25827 for biotransformation. The drug concentrations were measured before and after a 12-h incubation by liquid-chromatography-coupled mass spectrometry (LC–MS)
Details: 2 µM

Compound | Bacterial Biotransformation
CCOC(=O)C1=C(C)NC(C)=C(C(=O)OC)C1c1cccc([N+](=O)[O-])c1 (configuration not stated) [NITRENDIPINE] | Compound NOT metabolized
C#C[C@]1(O)CC[C@H]2[C@@H]3CCC4=Cc5oncc5C[C@]4(C)[C@H]3CC[C@@]21C [DANAZOL] | Compound metabolized
COc1ccc2[nH]c([S+]([O-])Cc3ncc(C)c(OC)c3C)nc2n1 (configuration not stated) [TENATOPRAZOLE] | Compound metabolized

Test: The drug is tested on Eubacterium rectale strain: ATCC33656 for biotransformation. The drug concentrations were measured before and after a 12-h incubation by liquid-chromatography-coupled mass spectrometry (LC–MS)
Details: agathobacter rectalis, 2 µM

Compound | Bacterial Biotransformation
CCOC(=O)C1=C(C)NC(C)=C(C(=O)OC)C1c1cccc([N+](=O)[O-])c1 (configuration not stated) [NITRENDIPINE] | Compound metabolized
C#C[C@]1(O)CC[C@H]2[C@@H]3CCC4=Cc5oncc5C[C@]4(C)[C@H]3CC[C@@]21C [DANAZOL] | Compound metabolized
COc1ccc2[nH]c([S+]([O-])Cc3ncc(C)c(OC)c3C)nc2n1 (configuration not stated) [TENATOPRAZOLE] | Compound metabolized

Test: The drug is tested on Anaerotruncus colihominis strain: DSM17241 for biotransformation. The drug concentrations were measured before and after a 12-h incubation by liquid-chromatography-coupled mass spectrometry (LC–MS)
Details: 2 µM

Compound | Bacterial Biotransformation
CCOC(=O)C1=C(C)NC(C)=C(C(=O)OC)C1c1cccc([N+](=O)[O-])c1 (configuration not stated) [NITRENDIPINE] | Compound metabolized
C#C[C@]1(O)CC[C@H]2[C@@H]3CCC4=Cc5oncc5C[C@]4(C)[C@H]3CC[C@@]21C [DANAZOL] | Compound metabolized

Test: The drug is tested on Ruminococcus gnavus strain: ATCC29149 for biotransformation. The drug concentrations were measured before and after a 12-h incubation by liquid-chromatography-coupled mass spectrometry (LC–MS)
Details: mediterraneibacter gnavus, 2 µM

Compound | Bacterial Biotransformation
CCOC(=O)C1=C(C)NC(C)=C(C(=O)OC)C1c1cccc([N+](=O)[O-])c1 (configuration not stated) [NITRENDIPINE] | Compound metabolized
C#C[C@]1(O)CC[C@H]2[C@@H]3CCC4=Cc5oncc5C[C@]4(C)[C@H]3CC[C@@]21C [DANAZOL] | Compound metabolized
COc1ccc2[nH]c([S+]([O-])Cc3ncc(C)c(OC)c3C)nc2n1 (configuration not stated) [TENATOPRAZOLE] | Compound metabolized

Test: The drug is tested on Bacteroides coprophilus strain: DSM18228 for biotransformation. The drug concentrations were measured before and after a 12-h incubation by liquid-chromatography-coupled mass spectrometry (LC–MS)
Details: 2 µM

Compound | Bacterial Biotransformation
CCOC(=O)C1=C(C)NC(C)=C(C(=O)OC)C1c1cccc([N+](=O)[O-])c1 (configuration not stated) [NITRENDIPINE] | Compound NOT metabolized
C#C[C@]1(O)CC[C@H]2[C@@H]3CCC4=Cc5oncc5C[C@]4(C)[C@H]3CC[C@@]21C [DANAZOL] | Compound NOT metabolized
COc1ccc2[nH]c([S+]([O-])Cc3ncc(C)c(OC)c3C)nc2n1 (configuration not stated) [TENATOPRAZOLE] | Compound metabolized

Details: bifidobacterium adolescentis, 12 h, 2 µM
Description: The drug is tested on Bifidobacterium adolescentis strain: ATCC 15703 for biotransformation. The drug concentrations were measured before and after a 12-h incubation by liquid-chromatography-coupled mass spectrometry (LC–MS)

Compound | Bacterial Biotransformation
CCOC(=O)C1=C(C)NC(C)=C(C(=O)OC)C1c1cccc([N+](=O)[O-])c1 (configuration not stated) [NITRENDIPINE] | Compound metabolized
C#C[C@]1(O)CC[C@H]2[C@@H]3CCC4=Cc5oncc5C[C@]4(C)[C@H]3CC[C@@]21C [DANAZOL] | Compound metabolized
COc1ccc2[nH]c([S+]([O-])Cc3ncc(C)c(OC)c3C)nc2n1 (configuration not stated) [TENATOPRAZOLE] | Compound metabolized

Test: The drug is tested on Bacteroides dorei strain: DSM17855 for biotransformation. The drug concentrations were measured before and after a 12-h incubation by liquid-chromatography-coupled mass spectrometry (LC–MS)
Details: phocaeicola dorei, 2 µM

Compound | Bacterial Biotransformation
CCOC(=O)C1=C(C)NC(C)=C(C(=O)OC)C1c1cccc([N+](=O)[O-])c1 (configuration not stated) [NITRENDIPINE] | Compound metabolized
C#C[C@]1(O)CC[C@H]2[C@@H]3CCC4=Cc5oncc5C[C@]4(C)[C@H]3CC[C@@]21C [DANAZOL] | Compound metabolized
COc1ccc2[nH]c([S+]([O-])Cc3ncc(C)c(OC)c3C)nc2n1 (configuration not stated) [TENATOPRAZOLE] | Compound metabolized
